ChEMBL document CHEMBL4190340, “Studies on the cytotoxicity and anticancer performance of heterocyclic hypervalent organobismuth(III) compounds” (Eur J Med Chem, 2017)
Active and inactive are the calls of the source. The calls are words filed in the database; no cut-off is given here.

Tests used:
[1] = tested on: A549; test: Induction of apoptosis in human A549 cells assessed as reduction in pro caspase 3 level at 10 uM after 24 hrs by Western blot analysis; assay type: functional, cell-based
[2] = tested on: A549; test: Cytotoxicity against human A549 cells assessed as reduction in cell viability after 48 hrs by CCK8 assay; assay type: functional, cell-based
[3] = species on record: Homo sapiens; test: Cytotoxicity against human […] cells assessed as reduction in cell viability after 48 hrs by CCK8 assay; assay type: functional, cell-based
[4] = tested on: SGC-7901; test: Cytotoxicity against human SGC7901 cells assessed as reduction in cell viability after 48 hrs by CCK8 assay; assay type: functional, cell-based
[5] = tested on: SW480; test: Cytotoxicity against human SW480 cells assessed as reduction in cell viability after 48 hrs by CCK8 assay; assay type: functional, cell-based
[6] = tested on: A549; test: Induction of apoptosis in human A549 cells assessed as cell shrinkage at 10 uM after 48 hrs by Annexin V-FITC/propidium iodide staining based laser scanning confocal microscopic analysis; assay type: functional
[7] = tested on: A549; test: Induction of apoptosis in human A549 cells assessed as connection disappearance at 10 uM after 48 hrs by Annexin V-FITC/propidium iodide staining based laser scanning confocal microscopic analysis; assay type: functional, cell-based
[8] = tested on: A549; test: Induction of apoptosis in human A549 cells assessed as nuclear enrichment at 10 uM after 48 hrs by Annexin V-FITC/propidium iodide staining based laser scanning confocal microscopic analysis; assay type: functional, cell-based
[9] = tested on: A549; test: Induction of apoptosis in human A549 cells assessed as membrane blebbing at 10 uM after 48 hrs by Annexin V-FITC/propidium iodide staining based laser scanning confocal microscopic analysis; assay type: functional, cell-based
[10] = tested on: A549; test: Induction of apoptosis in human A549 cells after 48 hrs by Annexin V-FITC/propidium iodide staining based flow cytometric analysis; assay type: functional, cell-based
[11] = tested on: A549; test: Induction of apoptosis in human A549 cells assessed as early apoptotic cells at 3 uM after 48 hrs by Annexin V-FITC/propidium iodide staining based flow cytometric analysis (reference value: 2.89%); assay type: functional, cell-based
[12] = tested on: A549; test: Induction of apoptosis in human A549 cells assessed as late apoptotic cells at 3 uM after 48 hrs by Annexin V-FITC/propidium iodide staining based flow cytometric analysis (reference value: 1.73%); assay type: functional, cell-based
[13] = tested on: A549; test: Induction of apoptosis in human A549 cells assessed as necrotic cells at 3 uM after 48 hrs by Annexin V-FITC/propidium iodide staining based flow cytometric analysis (reference value: 1.21%); assay type: functional, cell-based
[14] = tested on: A549; test: Induction of apoptosis in human A549 cells assessed as early apoptotic cells at 10 uM after 48 hrs by Annexin V-FITC/propidium iodide staining based flow cytometric analysis (reference value: 2.89%); assay type: functional, cell-based
[15] = tested on: A549; test: Induction of apoptosis in human A549 cells assessed as late apoptotic cells at 10 uM after 48 hrs by Annexin V-FITC/propidium iodide staining based flow cytometric analysis (reference value: 1.73%); assay type: functional, cell-based
[16] = tested on: A549; test: Induction of apoptosis in human A549 cells assessed as necrotic cells at 10 uM after 48 hrs by Annexin V-FITC/propidium iodide staining based flow cytometric analysis (reference value: 1.21%); assay type: functional, cell-based
[17] = tested on: A549; test: Upregulation of Bax mRNA expression in human A549 cells at 10 uM after 24 hrs by qRT-PCR analysis; assay type: functional, cell-based
[18] = tested on: A549; test: Downregulation of Bcl-2 mRNA expression in human A549 cells at 10 uM after 24 hrs by qRT-PCR analysis; assay type: functional, cell-based
[19] = tested on: A549; test: Upregulation of Bax protein level in human A549 cells at 3 to 10 uM after 24 hrs by Western blot analysis; assay type: functional, cell-based
[20] = tested on: A549; test: Downregulation of Bcl-2 protein level in human A549 cells at 3 to 10 uM after 24 hrs by Western blot analysis; assay type: functional, cell-based
[21] = tested on: A549; test: Induction of apoptosis in human A549 cells assessed as early apoptotic cells by Annexin V-FITC/propidium iodide staining based flow cytometric analysis (reference value: 1.43%); assay type: functional, cell-based
[22] = tested on: A549; test: Induction of apoptosis in human A549 cells assessed as late apoptotic cells by Annexin V-FITC/propidium iodide staining based flow cytometric analysis (reference value: 1.66%); assay type: functional, cell-based
[23] = tested on: A549; test: Induction of apoptosis in human A549 cells assessed as necrotic cells by Annexin V-FITC/propidium iodide staining based flow cytometric analysis (reference value: 0.96%); assay type: functional, cell-based
[24] = tested on: A549; test: Induction of apoptosis in human A549 cells assessed as early apoptotic cells in presence of z-VAD-fmk by Annexin V-FITC/propidium iodide staining based flow cytometric analysis (reference value: 1.43%); assay type: functional, cell-based
[25] = tested on: A549; test: Induction of apoptosis in human A549 cells assessed as late apoptotic cells in presence of z-VAD-fmk by Annexin V-FITC/propidium iodide staining based flow cytometric analysis (reference value: 1.66%); assay type: functional, cell-based
[26] = tested on: A549; test: Induction of apoptosis in human A549 cells assessed as necrotic cells in presence of z-VAD-fmk by Annexin V-FITC/propidium iodide staining based flow cytometric analysis (reference value: 0.96%); assay type: functional, cell-based

In the case of “5H-dibenzo[c,f][1,5]oxabismocin-12(7H)-yl nitrate”, the Activity [1] was “Active”, the Activity [2] was “Dose-dependent effect” and the Activity [3] was “Dose-dependent effect”. The Activity [4] was “Dose-dependent effect”, the Activity [5] was “Dose-dependent effect” and the Activity [6] was “Active”. For the same substance, the Activity [7] was “Active”, the Activity [8] was “Active” and the Activity [9] was “Active”. The Activity [10] was “Dose-dependent effect”, the Activity [11] was 5.18% and the Activity [12] was 4.16%. The Activity [13] was 0.617%, the Activity [14] was 17.4% and the Activity [15] was 4.24%. For the same substance, the Activity [16] was 6.68%, the Activity [17] was “Active” and the Activity [18] was “Active”. For the same substance, the Activity [19] was “Active”, the Activity [20] was “Active” and the Activity [21] was 18.6%. The Activity [22] was 10.2%, the Activity [23] was 2.24% and the Activity [24] was 3.19%. For the same substance, the Activity [25] was 5.26% and the Activity [26] was 2.66%.
